Assay [1] concerns the target Takadiastase-Y. Briefly: Inhibition of Takadiastase-Y deamination (decrease in optical density). The following applies: at 45° C., 2 min, read-out: ID50 (the source's name). In kind it is biochemical. The procedure:
(§1) The novel compound of the present invention, isocoformycin (III), is useful because of its ability to inhibit strongly the deamination of formycin, adenine arabinoside and cordycepin by the adenosine deaminase present in mammals and birds. The inhibitory activities of isocoformycin on adenosine deaminase were measured using formycin and adenosine as the substrate. Three ml of a solution of adenosine or formycin in 0.05 M phosphate buffer (12 mg/ml, pH 7.5 and 6.5, respectively) was put in a quartz cell of 1 cm in length and 0.1 ml of a solution containing a known amount of isocoformycin in distilled water was added. The reaction was started by addition of 0.1 ml of enzyme solution (adenosine deaminase from calf intestine: 1 mg/ml of 0.025 M ammonium acetate or Takadiastase-Y: 4 mg/ml of distilled water) and the decreases for 2 minutes in optical densities at 265 nm in the case of adenosine or 295 nm in the case of formycin were recorded on Beckmann spectrophotometer equipped with the Gilford recorder. The concentration of the inhibitor for 50% inhibition (ID50) was calculated from the difference of the optical densities as shown in Table 1.

Assay [2] concerns the target T1, adenosine deaminase from calf intestine (Bos taurus, UniProt P56658).
T1 construct: from tissue; host or cells: calf intestine
T1 sequence (P56658 1-363): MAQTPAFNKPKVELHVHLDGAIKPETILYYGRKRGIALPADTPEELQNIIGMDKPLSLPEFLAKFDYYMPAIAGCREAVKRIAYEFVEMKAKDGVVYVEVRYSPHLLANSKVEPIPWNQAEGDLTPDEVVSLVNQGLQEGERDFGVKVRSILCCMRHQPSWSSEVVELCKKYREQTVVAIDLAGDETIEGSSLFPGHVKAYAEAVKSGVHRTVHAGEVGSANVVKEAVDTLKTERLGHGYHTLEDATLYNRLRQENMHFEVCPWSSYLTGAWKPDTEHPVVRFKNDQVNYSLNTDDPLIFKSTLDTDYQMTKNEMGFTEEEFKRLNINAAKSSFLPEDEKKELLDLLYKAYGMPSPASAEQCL
Description: Inhibition of adenosine deaminase from calf intestine (decrease in optical density). In kind it is biochemical. The following applies: at 25° C., read-out: ID50 (the source's name). The procedure:
as §1

Assay [3] relates to mouse leukemia L-1210 cells. Description: Survival period of mice implanted with L-1210 cells. Format: in vivo. As to the method:
Each dose was injected i.p. 2 hrs. after implantation of 10^5 L-1210 cells once a day for 10 days.
"S. period" is the mean survival time in days.
"T/C" is the ratio of the mean survival time of the treated (with drug) animals versus the control's (no drug) and is expressed as a percentage.

Assay [4] concerns mouse leukemia L-1210 cells. Briefly: Inhibition of multiplication of L-1210 cells in tissue culture (Lowry method). Format: cell-based. From the text: The isocoformycin is also useful as a strong synergist of formcyin and adenine arabinoside for their antitumor activities. […] The inhibitory effect of formycin with or without isocoformycin on multiplication of the mouse leukemia L-1210 cells measured by the Lowry method [O. H. Lowry, N. J. Rosenbrough, A. L. Farr and R. J. Randall, J. Biol. Chem., 193, 265 (1951)] is directed in Table 2.

Assay [5] deals with Escherichia coli NIHJ. Briefly: Disc method on nutrient agar against Escherichia coli NIHJ. Format: cell-based. The conditions noted are these: for Diameter (inhibition diameter): disc 8 mm, medium containing formycin 50 μg/ml.
The mark [6] stands for this setting: formycin 50 μg/m i.p. once a day for 10 days, isocoformycin 0.
Where [7] appears, read: isocoformycin 1.5 μg/m i.p. once a day for 10 days, without formycin.
Where [8] appears, read: isocoformycin 1.5 μg/m with formycin 50 μg/m, i.p. once a day for 10 days.
The mark [9] stands for this setting: isocoformycin 3.1 μg/m i.p. once a day for 10 days, without formycin.
Where [10] appears, read: isocoformycin 3.1 μg/m with formycin 50 μg/m, i.p. once a day for 10 days.
Setting [11] is: isocoformycin 6.2 μg/m i.p. once a day for 10 days, without formycin.
Setting [12] is: isocoformycin 6.2 μg/m with formycin 50 μg/m, i.p. once a day for 10 days.
The mark [13] stands for this setting: isocoformycin 12.5 μg/m i.p. once a day for 10 days, without formycin.
Where [14] appears, read: isocoformycin 12.5 μg/m with formycin 50 μg/m, i.p. once a day for 10 days.
[15] abbreviates: isocoformycin 25 μg/m i.p. once a day for 10 days, without formycin.
Setting [16] is: isocoformycin 25 μg/m with formycin 50 μg/m, i.p. once a day for 10 days.
Where [17] appears, read: isocoformycin 50 μg/m i.p. once a day for 10 days, without formycin.
Where [18] appears, read: isocoformycin 50 μg/m with formycin 50 μg/m, i.p. once a day for 10 days.

By inhibition is commonly meant the drop in the measured response relative to a control, in per cent.

SMILES strings stand for the structures. pIC50: −log10 of the molar value. Read-outs that look alike come from different tables or passages of the source.

Consider `OCC1NC=Nc2c1ncn2[C@@H]1O[C@H](CO)[C@@H](O)[C@H]1O` (stereo partly drawn) [9-β-D-ribofuranosyl-6-hydroxymethyl-1,6-dihydropurine, reference compound], for which the pIC50 in assay [1] (substrate adenosine, pH 7.5) is 3.55; in assay [1] (substrate formycin, pH 6.5), 3.70; in assay [2] (substrate adenosine, pH 7.5), 5.24; in assay [2] (substrate formycin, pH 6.5) it was 5.59.
Take `Nc1ncnc2c([C@@H]3O[C@H](CO)[C@@H](O)[C@H]3O)[nH]nc12` [Formycin, formycin]: in assay [3] (setting [6]), the T/C % worked out at 122% and the “s.period (mean survival time)” value stood at 10.5 days. For the same compound, the inhibition at 0.2 µg/mL in assay [4] (Mus musculus, L1210) is 8%.
With `OC[C@H]1O[C@@H](n2cnc3c2N=CNC(O)C3)[C@H](O)[C@@H]1O` (stereo partly drawn) [Isocoformycin, 3-β-D-ribofuranosyl-3,6,7,8-tetrahydroimidazo[4,5-d][1,3]-diazepin-7-ol], the “prolongation in the survival period” value in assay [3] (formycin combined with isocoformycin intraperitoneally) was “marked prolongation”. Moreover, the T/C % in assay [3] (setting [7]) is 93%; in assay [3] (setting [8]), 145%; in assay [3] (setting [9]), 105%; in assay [3] (setting [10]), 163%; in assay [3] (setting [11]), 99%; in assay [3] (setting [12]) it was 140%. The T/C % stood at 116% in assay [3] (setting [13]); 163% in assay [3] (setting [14]); 93% in assay [3] (setting [15]); 174% in assay [3] (setting [16]); 93% in assay [3] (setting [17]); 174% in assay [3] (setting [18]). The “s.period (mean survival time)” value in assay [3] (setting [7]) is on record as 8.0 days; in assay [3] (setting [8]), 12.5 days; in assay [3] (setting [9]) it was 9.0 days; in assay [3] (setting [10]) it was 14.0 days; in assay [3] (setting [11]), 9.0 days; in assay [3] (setting [12]), 12.0 days. Also, the “s.period (mean survival time)” value in assay [3] (setting [13]) was 8.5 days; in assay [3] (setting [14]), 14.0 days; in assay [3] (setting [15]) it was 10.0 days; in assay [3] (setting [16]) it was 15.0 days; in assay [3] (setting [17]), 8.0 days; in assay [3] (setting [18]) it was 15.0 days. For the same compound, the “Diameter (inhibition diameter)” value in assay [5] (isocoformycin 2.5 μg/ml) is given as 22.0 mm; in assay [5] (isocoformycin 10 μg/ml), 25.0 mm; in assay [5] (isocoformycin 40 μg/ml), 32.0 mm; in assay [5] (isocoformycin 200 μg/ml) it was 36.0 mm. The “inhibitory activity against Escherichia coli NIHJ” value in assay [5] (without formycin, isocoformycin 2 mg/ml) is given as “no inhibitory activity”. For the same compound, the pIC50 in assay [1] (substrate adenosine, pH 7.5) was 5.96; in assay [1] (substrate formycin, pH 6.5), 5.70; in assay [2] (substrate adenosine, pH 7.5) it was 7.07; in assay [2] (substrate formycin, pH 6.5), 7.46. The inhibition at 0.2 µg/mL in assay [4] (Mus musculus, L1210, isocoformycin 0.20 μg/ml, formycin 0.0, read-out: Inhibition (%)) was 0%. Moreover, the inhibition at 0.5 µg/mL in assay [4] (Mus musculus, L1210, isocoformycin 0.50 μg/ml, formycin 0.0) is -4%. For the same compound, the “Inhibition (%)” value amounted to 42% in assay [4] (isocoformycin 0.20 μg/ml with formycin 0.20 μg/ml) and 55% in assay [4] (isocoformycin 0.50 μg/ml with formycin 0.20 μg/ml). Moreover, the “synergistic effect with formycin in the inhibition of cell multiplication” value in assay [4] (tissue cultures, with formycin) is “strong synergistic effect”.

Values taken from patent US4163839A, “Isocoformycin and a process for the production thereof” (priority 1977, dated 1979).
